Source: patent publication US9095567B2, “Vaccine formulations” (priority 2010, dated 2015)
“Also recorded” adds a separate entry of the source.

Assays:
[1] = tested on: Staphylococcus aureus, Pseudomonas aeruginosa, Candida albicans, Aspergillus niger; assay: Preservative effectiveness test, single challenge, all challenge organisms (pharmacopeial acceptance criteria); type: cell-based; settings: for preservative effectiveness after storage: 2-PE at 3.5 to 5.0 mg/dose
Description: For ascertaining preservative levels according to U.S. and European Pharmacopeias (USP and EP, respectively), the vaccine formation is inoculated once with approximately 10^5 to 10^6 CFU/ml at time 0 (CFU=colony forming units) of:
USP 29 NF 24 Supplement 2 (USP) requires that, after an inoculation of bacterial micro-organism(s), there is at least 1.0 log reduction from the initial calculated count (i.e., at time of inoculation) at 7 days, at least 3.0 log reduction at 14 days from the previous value measured, and no increase at 28 days compared to the previous value measured. For yeast and fungi, the USP requirement is for there to be no increase from time of inoculation at 7, 14 and 28 days.
EP requirements are more stringent. EP 5th Edition 5.6 (5.1.3) requirements for parenteral and ophthalmic preparations has two components: Category A and Category B. Category A (EP-A) requires, for bacteria, at least 2.0 log reduction from the initial calculated count at 6 hours after inoculation, at least 3.0 log reduction from the previous value measured at 24 hours and no recovery at 28 days. Category B (EP-B) requires, for bacteria, at least 1.0 log reduction from the initial calculated count at 24 hours, at least 3.0 log reduction at 7 days from the previous value measured and not more than 0.5 log increase from the previous value measured (i.e., no increase) at 28 days. For yeast and fungi, Category A requires at least 2.0 log reduction at 7 days from the initial calculated count, and no increase at 28 days from the previous measured value; and Category B requires at least 1.0 log reduction from the initial calculated count at 14 days and no increase at 28 days from the previous measured value.
Thirty milliliters (ml) of each vaccine formulation with and without Thimerosal or 2-PE at indicated concentrations or saline containing Thimerosal at 0.02% were inoculated in triplicates with a suspension of each test organism to achieve an inoculum density of approximately 10^5 to 10^6 CFU/ml at time 0 (CFU=colony forming units). […] Samples were mixed to ensure even distribution of challenged organisms. Another 30 ml of vaccine in triplicate (with and without preservative) were used as a negative control and spiked with the culture media alone to evaluate the inherent contamination that might be present in the sample or media. Each of the three series of vaccines, and positive and negative controls, was then separately incubated at 20 to 25° C. Aliquots (1 ml) of the challenged samples and controls (or their appropriate serial ten fold dilutions) were enumerated by plate count in duplicates at time 0 and at intervals of 6 hours, 24 hours, 7 days, 14 days and 28 days post-inoculation.
USP 29 NF 24 Supplement 2 (USP) requires that, after an inoculation of bacterial micro-organism(s), there is at least 1.0 log reduction from the initial calculated count (i.e., at time of inoculation) at 7 days, at least 3.0 log reduction at 14 days from the previous value measured and no increase at 28 days from the previous measured value. For yeast and fungi, the USP requirement is for there to be no increase from the time of inoculation to 7, 14 and 28 days.
EP requirements are more stringent. EP 5th Edition 5.6 (5.1.3) requirements for parenteral and ophthalmic preparations has two components: Category A and Category B. Category A (EP-A) requires, for bacteria, at least 2.0 log reduction from the initial calculated count at 6 hours after inoculation, at least 3.0 log reduction at 24 hours from the previous measured value, and no recovery at 28 days. Category B (EP-B) requires, for bacteria, at least 1.0 log reduction at 24 hours from the initial calculated count, at least 3.0 log reduction at 7 days from the previous value measured and not more than 0.5 log increase at 28 days from the previous value measured (i.e., no increase).

[2] = 2-PE concentration on storage (Reversed-Phase HPLC assay)
Method: 2-EP concentration may be measured with a Reversed-Phase HPLC assay, also as described in Example 3. A Reversed-Phase HPLC assay may be performed in the following manner: Samples are vortexed and diluted 1:10 into 5 mM Succinate buffer in saline, centrifuged and diluted again 1:10 into 5 mM succinate buffer in saline (final dilution of the Test Sample is 1:100). The sample is then assayed utilizing the Agilent Eclipse XDB-C18 HPLC column and a linear gradient of water and acetonitrile containing trifluoroacetic acid. The quantification of the preservative is then compared to a standard curve.
2-PE concentration was measured with a Reversed-Phase HPLC assay. Samples were vortexed and diluted 1:10 into 5 mM Succinate buffer in saline, centrifuged and diluted again 1:10 into 5 mM succinate buffer in saline. Final dilution of the Test Sample was 1:100. The assay utilized the Agilent Eclipse XDB-C18 HPLC column and a linear gradient of water and acetonitrile containing trifluoroacetic acid. 2-PE in 13vPnC Multi-Dose Vaccine samples was quantified against a 2-PE standard curve.

[3] = tested on: E. coli
Method: To represent the worst reasonable case of contamination that may occur in practice during the repeated use of a multi-dose presentation, WHO requires safety testing with deliberate exposure to multiple contamination events using bacterial strains, Pseudomonas Aeruginosa (“PA”), Staphylococcus Aureus (“SA”), Escherichia coli (“EC”) and Bacillus subtilis (“BA”). Formulations are spiked with 5×10^3 CFU/ml of each organism at times 0, 6 hours, 24 hours, 7 days and 14 days after initial challenge and stored either at 2-8° C. or at 22-24° C. to mimic the potential storage conditions in practice.
To assess the appropriateness of WHO multi-dose Open Vial Policy of vaccines in multiple immunization sessions for up to maximum of four weeks, experimental design provided by WHO was implemented. In this study, the effectiveness of Thimerosal was evaluated at the concentration that is present in the majority of U.S. licensed vaccines (0.01%), as well as at a higher concentration of 0.02%. To represent the worst reasonable case of contamination that may occur in practice during the repeated use of a multi-dose presentation, and to test WHO requirements, Prev(e)nar 13 vaccine formulations with 0.01 or 0.02% Thimerosal or with 5.0 mg/dose of 2-PE were deliberately exposed to multiple contamination events using WHO recommended bacterial strains, P. aeruginosa, S. aureus, E. coli and B. subtilis. […]

[4] = 2-PE at 2.5 mg/dose, single challenge
[5] = Thimerosal at 0.01% in Prev(e)nar 13 vaccine formulation, single challenge
[6] = Thimerosal at 0.02% (50 μg mercury per dose), single challenge
[7] = Thimerosal at 0.04% (100 μg mercury per dose), single challenge

Q: Which “EP-A anti-microbial effectiveness acceptance criteria” value [1] does the source give for `OCCOc1ccccc1` [2-PE, 2-phenoxyethanol] here?
A: Its value is “met”.

Q: And the “EP-B anti-microbial effectiveness acceptance criteria” value [1]?
A: The value was “met”.

Q: And the “EP acceptance criteria A” value [1, 4]?
A: The value was “failed”.

Q: What about the “EP acceptance criteria B” value [1, 4] of the same compound?
A: Its value is “failed”.

Q: And the “preservative acceptance criteria EP-B” value ([1]; 2-PE at 3.5 mg/dose, single challenge)?
A: Its value is “meet”.

Q: What about the “preservative acceptance criteria EP-B” value ([1]; 2-PE at 5 mg/dose, single challenge) of the same compound?
A: Its value is “meet”.

Q: What about the “preservative effectiveness after storage” value ([1]; formulations stored at 2-8° C. for two and a half years) of the same compound?
A: Its value is “remained persistent”.

Q: What about the “preservative effectiveness after storage” value ([1]; formulations stored at 37° C. for a month) of the same compound?
A: Its value is “remained persistent”.

Q: What about the “EP acceptance criteria B” value ([1]; 2-PE at concentrations of 3.5 to 5.5 mg/dose, single challenge) of the same compound?
A: Its value is “met”.

Q: And the “effectiveness as a preservative compared with Thimerosal” value ([1]; Prev(e)nar 13 formulation, single challenge)?
A: Its value is “more effective”.

Q: And the “concentration of 2-PE in the formulation on storage” value ([2]; Prev(e)nar 13 formulation stored at 2-8° C. (two and a half years))?
A: The value was “similarly stable; also recorded: did not change”.

Q: And the “concentration of 2-PE in the formulation on storage” value ([2]; Prev(e)nar 13 formulation stored at 37° C. (a month))?
A: Its value is “similarly stable; also recorded: did not change”.

Q: What does the source list for `C[CH2][Hg][S]c1ccccc1C(=O)[O-].[Na+]` [Thimerosal]?
A: contamination levels of all four inoculated micro-organisms ([1]; 0.01% Thimerosal in Prev(e)nar 13, single challenge, 20-25° C., 28 days): reduced; European acceptance criteria EP-A [1, 5]: did not meet; European acceptance criteria EP-B [1, 5]: did not meet; acceptance limits established by the Japanese Pharmacopoeia [1, 5]: did pass; acceptance limits established by the U.S. Pharmacopoeia [1, 5]: did pass; EP acceptance criteria A [1, 6]: not; EP acceptance criteria B [1, 6]: met; EP acceptance criteria A [1, 7]: not; EP acceptance criteria B [1, 7]: met; reduction of E. coli ([3]; 0.01% Thimerosal in Prev(e)nar 13, multiple challenges, particularly at 2-8° C.): slow; rate of decay of E. coli in saline formulation versus vaccine formulation ([3]; 0.02% Thimerosal, multiple challenges): more pronounced
